Biological target: T1, Human plasma kallikrein (Homo sapiens, UniProt P03952)
T1 construct: yields a heavy chain (371 amino acids) and a light chain (248 amino acids); purchased Enzyme Research Laboratories
Assay: Plasma Kallikrein Assay
Format: biochemical
Details: purified Human plasma kallikrein 0.5 nM, substrate Acetyl-K-P-R-AFC; read-out: PKal IC50
Procedure: The effectiveness of a compound of the present invention as an inhibitor of plasma kallikrein can be determined using a relevant purified serine protease, and an appropriate synthetic substrate. The rate of hydrolysis of the chromogenic or fluorogenic substrate by the relevant serine protease was measured both in the absence and presence of compounds of the present invention. Assays were conducted at rt or at 37° C. […] A decrease in the rate of fluorescence change in the presence of inhibitor is indicative of enzyme inhibition. Such methods are known to one skilled in the art. The results of this assay are expressed as the half-maximal inhibitory concentrations (IC50), or the inhibitory constant, Ki.
Plasma kallikrein determinations were made in 50 mM HEPES buffer at pH 7.4 containing 150 mM NaCl, 5 mM CaCl2), and 0.1% PEG 8000 (polyethylene glycol; Fisher Scientific). Determinations were made using purified Human plasma kallikrein at a final concentration of 0.5 nM (Enzyme Research Laboratories) and the synthetic substrate, Acetyl-K-P-R-AFC (Sigma #C6608) at a concentration of […].
Times required to achieve equilibration between enzyme and inhibitor were determined in control experiments. […] IC50 was determined by inflection point from a four parameter logistic curve fit. Ki was calculated using the Cheng Prusoff equation, Ki=IC50/(1+([S]/Km)).

T1 sequence (P03952 391-638 limits assumed): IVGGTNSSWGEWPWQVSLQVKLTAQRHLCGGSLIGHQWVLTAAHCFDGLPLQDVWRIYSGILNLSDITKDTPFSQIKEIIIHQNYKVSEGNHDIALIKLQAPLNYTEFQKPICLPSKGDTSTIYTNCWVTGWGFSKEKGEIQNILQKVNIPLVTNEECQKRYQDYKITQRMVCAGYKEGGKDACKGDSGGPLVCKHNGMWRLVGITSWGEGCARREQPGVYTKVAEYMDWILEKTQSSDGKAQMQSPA
T1 sequence (P03952 20-390 partner limits assumed): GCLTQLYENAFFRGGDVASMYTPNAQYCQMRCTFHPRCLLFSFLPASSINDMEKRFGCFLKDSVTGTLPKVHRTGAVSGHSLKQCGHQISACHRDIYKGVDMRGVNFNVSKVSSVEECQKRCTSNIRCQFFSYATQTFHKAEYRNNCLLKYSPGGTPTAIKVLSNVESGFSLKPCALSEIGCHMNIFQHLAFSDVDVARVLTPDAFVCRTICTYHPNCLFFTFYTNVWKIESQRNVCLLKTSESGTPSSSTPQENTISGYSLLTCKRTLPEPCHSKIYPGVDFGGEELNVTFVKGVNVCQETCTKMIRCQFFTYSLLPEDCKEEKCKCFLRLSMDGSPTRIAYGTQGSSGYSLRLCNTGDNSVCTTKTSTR

Row | IC50 | Compound
1 | 37.6 nM | COc1ccc(Cl)cc1Cn1cc(C(=O)N2CCC[C@@]3(C2)OC(=O)Nc2ccc(Cl)c(F)c23)cn1 [Example 13, (R)-6-Chloro-1′-(1-(5-chloro-2-methoxybenzyl)-1H-pyrazole-4-carbonyl)-5-fluorospiro[benzo[d][1,3]oxazine-4,3′-piperidin]-2(1H)-one]
2 | 37.8 nM | O=C1Nc2ccc(Cl)c(F)c2[C@@]2(CCCN(C(=O)c3cnn(Cc4noc5ccccc45)c3)C2)O1 [Example 17, (R)-1′-(1-(Benzo[d]isoxazol-3-ylmethyl)-1H-pyrazole-4-carbonyl)-6-chloro-5-fluorospiro[benzo[d][1,3]oxazine-4,3′-piepridin]-2(1H)-one]
3 | 50.4 nM | Cc1nc(Cn2cc(C(=O)N3CCC[C@@]4(C3)OC(=O)Nc3ccc(Cl)c(F)c34)cn2)sc1C [Example 18, (R)-6-Chloro-1′-(1-((4,5-dimethylthiazol-2-yl)methyl)-1H-pyrazole-4-carbonyl)-5-fluorospiro[benzo[d][1,3]oxazine-4,3′-piperidin]-2(1H)-one]
4 | 27 nM | O=C1Nc2ccc(Cl)c(F)c2[C@@]2(CCCN(C(=O)c3cnn(Cc4cnc5ccccn45)c3)C2)O1 [Example 19, (R)-6-Chloro-5-fluoro-1′-(1-(imidazo[1,2-a]pyridin-3-ylmethyl)-1H-pyrazole-4-carbonyl)spiro[benzo[d][1,3]oxazine-4,3′-piperidin]-2(1H)-one]
5 | 28.1 nM | CC1CN(C(=O)c2cnn(Cc3ccccc3)c2)C[C@]2(C1)OC(=O)Nc1ccc(Cl)c(F)c12 (stereo partly drawn) [Example 20, (4R)-1′-(1-Benzyl-1H-pyrazole-4-carbonyl)-6-chloro-5-fluoro-5′-methylspiro[benzo[d][1,3]oxazine-4,3′-piperidin]-2(1H)-one]
6 | 12.1 nM | CC1(C)CN(C(=O)c2cnn(Cc3ccccc3)c2)C[C@]2(C1)OC(=O)Nc1ccc(Cl)c(F)c12 [Example 21, (R)-1′-(1-Benzyl-1H-pyrazole-4-carbonyl)-6-chloro-5-fluoro-5′,5′-dimethylspiro[benzo[d][1,3]oxazine-4,3′-piperidin]-2(1H)-one]
7 | 10.9 nM | C[C@@H](c1cccc(Cl)c1)n1cc(C(=O)N2CCC[C@@]3(C2)OC(=O)Nc2ccc(Cl)c(F)c23)cn1 [Example 27, (R)-6-Chloro-1′-(1-((S)-1-(3-chlorophenyl)ethyl)-1H-pyrazole-4-carbonyl)-5-fluorospiro[benzo[d][1,3]oxazine-4,3′-piperidin]-2(1H)-one]
8 | 27.1 nM | N#Cc1ccc(Cn2cc(C(=O)N3CCC[C@@]4(C3)OC(=O)Nc3ccc(Cl)c(F)c34)cn2)cc1Cl [Example 47, (R)-2-Chloro-4-((4-(6-chloro-5-fluoro-2-oxo-1,2-dihydrospiro[benzo[d][1.3]oxazine-4,3′-piperidine]-1′-carbonyl)-1H-pyrazol-1-yl)methyl)benzonitrile]
9 | 32.6 nM | O=C1Nc2ccc(Cl)c(F)c2[C@@]2(CCCN(C(=O)c3cnn(Cc4cccc(C5CC5)c4)c3)C2)O1 [Example 48, (R)-6-Chloro-1′-(1-(3-cyclopropylbenzyl)-1H-pyrazole-4-carbonyl)-5-fluorospiro[benzo[d][1,3]oxazine-4,3′-piperidin]-2(1H)-one]
10 | 47 nM | COC(=O)c1ccc(Cn2cc(C(=O)N3CCC[C@@]4(C3)OC(=O)Nc3ccc(Cl)c(F)c34)cn2)cc1F [Example 49, Methyl (R)-4-((4-(6-chloro-5-fluoro-2-oxo-1,2-dihydrospiro[benzo[d][1,3]oxazine-4,3′-piperidine]-1′-carbonyl)-1H-pyrazol-1-yl)methyl)-2-fluorobenzoate]
11 | 13.7 nM | O=C1Nc2ccc(Cl)c(F)c2[C@@]2(CCCN(C(=O)c3cnn(Cc4ccc(-n5cc[nH]c5=O)cc4)c3)C2)O1 [Example 50, (R)-6-Chloro-5-fluoro-1′-(1-(4-(2-oxo-2,3-dihydro-1H-imidazol-1-yl)benzyl)-1H-pyrazole-4-carbonyl)spiro[benzo[d][1,3]oxazine-4,3′-piperidin]-2(1H)-one]
12 | 35.1 nM | CN1CCOc2cc(Cn3cc(C(=O)N4CCC[C@@]5(C4)OC(=O)Nc4ccc(Cl)c(F)c45)cn3)ccc21 [Example 51, (R)-6-Chloro-5-fluoro-1′-(1-((4-methyl-3,4-dihydro-2H-benzo[b][1,4]oxazin-7-yl)methyl)-1H-pyrazole-4-carbonyl)spiro[benzo[d][1,3]oxazine-4,3′-piperidin]-2(1H)-one]
13 | 24.1 nM | O=C(O)COc1ccc(Cn2cc(C(=O)N3CCC[C@@]4(C3)OC(=O)Nc3ccc(Cl)c(F)c34)cn2)cc1 [Example 52, (R)-2-(4-((4-(6-Chloro-5-fluoro-2-oxo-1,2-dihydrospiro[benzo[d][1,3]oxazine-4,3′-piperidine]-1′-carbonyl)-1H-pyrazol-1-yl)methyl)phenoxy)acetic acid]
14 | 18.5 nM | O=C1Nc2ccc(Cl)c(F)c2[C@@]2(CCCN(C(=O)c3cnn(Cc4ccc(-c5c[nH]c(=O)o5)cc4)c3)C2)O1 [Example 53, (R)-6-Chloro-5-fluoro-1′-(1-(4-(2-oxo-2,3-dihydrooxazol-5-yl)benzyl)-1H-pyrazole-4-carbonyl)spiro[benzo[d][1,3]oxazine-4,3′-piperidin]-2(1H)-one]
15 | 29.8 nM | O=C1Nc2ccc(Cl)c(F)c2[C@@]2(CCCN(C(=O)c3cnn(Cc4ccc5c(c4)OCCO5)c3)C2)O1 [Example 54, (R)-6-Chloro-1′-(1-((2,3-dihydrobenzo[b][1,4]dioxin-6-yl)methyl)-1H-pyrazole-4-carbonyl)-5-fluorospiro[benzo[d][1,3]oxazine-4,3′-piperidin]-2(1H)-one]
16 | 17.1 nM | O=C1Nc2ccc(Cl)c(F)c2[C@@]2(CCCN(C(=O)c3cnn(Cc4ccc5ccsc5c4)c3)C2)O1 [Example 55, (R)-1′-(1-(Benzo[b]thiophen-6-ylmethyl)-1H-pyrazole-4-carbonyl)-6-chloro-5-fluorospiro[benzo[d][1,3]oxazine-4,3′-piperidin]-2(1H)-one]
17 | 10.9 nM | O=C1Nc2ccc(Cl)c(F)c2[C@@]2(CCCN(C(=O)c3cnn(Cc4ccc5c(c4)COCC5)c3)C2)O1 [Example 56, (R)-6-Chloro-5-fluoro-1′-(1-(isochroman-7-ylmethyl)-1H-pyrazole-4-carbonyl)spiro[benzo[d][1,3]oxazine-4,3′-piperidin]-2(1H)-one]
18 | 29.7 nM | Nc1noc2ccc(Cn3cc(C(=O)N4CCC[C@@]5(C4)OC(=O)Nc4ccc(Cl)c(F)c45)cn3)cc12 [Example 57, (R)-1′-(1-((3-Aminobenzo[d]isoxazol-5-yl)methyl)-1H-pyrazole-4-carbonyl)-6-chloro-5-fluorospiro[benzo[d][1,3]oxazine-4,3′-piperidin]-2(1H)-one]
19 | 10.7 nM | O=C1Nc2ccc(Cl)c(F)c2[C@@]2(CCCN(C(=O)c3cnn(Cc4ccc5c(c4)CC(CO)O5)c3)C2)O1 (stereo partly drawn) [Example 58, (4R)-6-Chloro-5-fluoro-1′-(1-((2-(hydroxymethyl)-2,3-dihydrobenzofuran-5-yl)methyl)-1H-pyrazole-4-carbonyl)spiro[benzo[d][1,3]oxazine-4,3′-piperidin]-2(1H)-one]
20 | 22.9 nM | CC1(C)COc2cc(Cn3cc(C(=O)N4CCC[C@@]5(C4)OC(=O)Nc4ccc(Cl)c(F)c45)cn3)ccc21 [Example 59, (R)-6-Chloro-1′-(1-((3,3-dimethyl-2,3-dihydrobenzofuran-6-yl)methyl)-1H-pyrazole-4-carbonyl)-5-fluorospiro[benzo[d][1,3]oxazine-4,3′-piperidin]-2(1H)-one]
21 | 14.7 nM | O=C1Nc2ccc(Cl)c(F)c2[C@@]2(CCCN(C(=O)c3cnn(Cc4ccc5c(c4)COC5)c3)C2)O1 [Example 60, (R)-6-chloro-1′-(1-((1,3-dihydroisobenzofuran-5-yl)methyl)-1H-pyrazole-4-carbonyl)-5-fluorospiro[benzo[d][1,3]oxazine-4,3′-piperidin]-2(1H)-one]
22 | 36.5 nM | O=C1Nc2ccc(Cl)c(F)c2[C@@]2(CCCN(C(=O)c3cnn(Cc4ccc5c(c4)CNC5=O)c3)C2)O1 [Example 61, (R)-6-chloro-5-fluoro-1′-(1-((1-oxoisoindolin-5-yl)methyl)-1H-pyrazole-4-carbonyl)spiro[benzo[d][1,3]oxazine-4,3′-piperidin]-2(1H)-one]
23 | 49.5 nM | NS(=O)(=O)c1cccc(Cn2cc(C(=O)N3CCC[C@@]4(C3)OC(=O)Nc3ccc(Cl)c(F)c34)cn2)c1 [Example 62, (R)-3-((4-(6-chloro-5-fluoro-2-oxo-1,2-dihydrospiro[benzo[d][1,3]oxazine-4,3′-piperidine]-1′-carbonyl)-1H-pyrazol-1-yl)methyl)benzenesulfonamide]
24 | 42.6 nM | CS(=O)(=O)c1cccc(Cn2cc(C(=O)N3CCC[C@@]4(C3)OC(=O)Nc3ccc(Cl)c(F)c34)cn2)c1 [Example 63, (R)-6-chloro-5-fluoro-1′-(1-(3-(methylsulfonyl)benzyl)-1H-pyrazole-4-carbonyl)spiro[benzo[d][1,3]oxazine-4,3′-piperidin]-2(1H)-one]
25 | 24.2 nM | O=C1Nc2ccc(Cl)c(F)c2[C@@]2(CCCN(C(=O)c3cnn(Cc4ccc5c(c4)CNS5(=O)=O)c3)C2)O1 [Example 64, (R)-6-chloro-1′-(1-((1,1-dioxido-2,3-dihydrobenzo[d]isothiazol-5-yl)methyl)-1H-pyrazole-4-carbonyl)-5-fluorospiro[benzo[d][1,3]oxazine-4,3′-piperidin]-2(1H)-one]

From patent publication US20250099478A1, “PLASMA KALLIKREIN INHIBITORS” (Merck Sharp & Dohme LLC, priority 2022, published 2025)
